Earlier results in patent publication US20230109626A1 (priority 2020, published 2023).

Conditions: for solubility in water: at 20° C.

For `[H]/N=C(\N/C(=N/[H])NCCCCCCNC(=N)NC(=N)Nc1ccc(Cl)cc1)Nc1ccc(Cl)cc1` [Chlorhexidine], the solubility (temperature not given) is listed as “about 80 mg/100 mL” and the solubility in water is listed as 80 mg/100 mL.

For `N=C(NCCCCCCNC(=N)NC(=N)Nc1ccc(Cl)cc1)NC(=N)Nc1ccc(Cl)cc1.O=C(O)[C@H](O)[C@@H](O)[C@H](O)[C@H](O)CO.O=C(O)[C@H](O)[C@@H](O)[C@H](O)[C@H](O)CO` [chlorhexidine gluconate], the solubility in water is given as ≥ 2100 mg/100 mL.
